Experiment [1] has as its target T1, full-length elephant shark GR (Callorhinchus milii, UniProt V9KGN8).
T1 sequence (V9KGN8 1-704): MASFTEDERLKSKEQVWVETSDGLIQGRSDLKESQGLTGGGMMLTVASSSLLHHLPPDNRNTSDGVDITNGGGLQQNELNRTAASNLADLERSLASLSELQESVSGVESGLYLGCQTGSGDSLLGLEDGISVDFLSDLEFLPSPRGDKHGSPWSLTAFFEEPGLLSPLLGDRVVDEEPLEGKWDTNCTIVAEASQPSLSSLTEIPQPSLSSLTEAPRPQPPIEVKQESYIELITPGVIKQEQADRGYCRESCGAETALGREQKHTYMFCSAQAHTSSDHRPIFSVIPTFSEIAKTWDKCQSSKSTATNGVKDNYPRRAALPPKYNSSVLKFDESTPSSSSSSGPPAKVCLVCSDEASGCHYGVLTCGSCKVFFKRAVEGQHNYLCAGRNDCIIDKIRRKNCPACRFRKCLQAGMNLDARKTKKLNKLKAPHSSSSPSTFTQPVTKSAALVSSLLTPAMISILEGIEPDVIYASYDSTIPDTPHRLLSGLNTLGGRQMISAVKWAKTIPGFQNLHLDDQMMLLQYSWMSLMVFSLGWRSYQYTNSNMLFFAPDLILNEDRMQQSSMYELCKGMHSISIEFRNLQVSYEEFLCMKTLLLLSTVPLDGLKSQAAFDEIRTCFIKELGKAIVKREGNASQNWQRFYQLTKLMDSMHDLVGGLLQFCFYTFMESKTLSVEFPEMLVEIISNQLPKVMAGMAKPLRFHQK
Description: cell-based. Also noted: species or system HEK293.

Experiment [2] has as its target T1, full-length elephant shark GR. Description: cell-based. Also noted: species or system HEK293. This is another data set of the same source.
The target in experiment [3] is T2, full-length elephant shark MR (Callorhinchus milii, UniProt A0A4W3I5J5).
T2 sequence (A0A4W3I5J5 1-956): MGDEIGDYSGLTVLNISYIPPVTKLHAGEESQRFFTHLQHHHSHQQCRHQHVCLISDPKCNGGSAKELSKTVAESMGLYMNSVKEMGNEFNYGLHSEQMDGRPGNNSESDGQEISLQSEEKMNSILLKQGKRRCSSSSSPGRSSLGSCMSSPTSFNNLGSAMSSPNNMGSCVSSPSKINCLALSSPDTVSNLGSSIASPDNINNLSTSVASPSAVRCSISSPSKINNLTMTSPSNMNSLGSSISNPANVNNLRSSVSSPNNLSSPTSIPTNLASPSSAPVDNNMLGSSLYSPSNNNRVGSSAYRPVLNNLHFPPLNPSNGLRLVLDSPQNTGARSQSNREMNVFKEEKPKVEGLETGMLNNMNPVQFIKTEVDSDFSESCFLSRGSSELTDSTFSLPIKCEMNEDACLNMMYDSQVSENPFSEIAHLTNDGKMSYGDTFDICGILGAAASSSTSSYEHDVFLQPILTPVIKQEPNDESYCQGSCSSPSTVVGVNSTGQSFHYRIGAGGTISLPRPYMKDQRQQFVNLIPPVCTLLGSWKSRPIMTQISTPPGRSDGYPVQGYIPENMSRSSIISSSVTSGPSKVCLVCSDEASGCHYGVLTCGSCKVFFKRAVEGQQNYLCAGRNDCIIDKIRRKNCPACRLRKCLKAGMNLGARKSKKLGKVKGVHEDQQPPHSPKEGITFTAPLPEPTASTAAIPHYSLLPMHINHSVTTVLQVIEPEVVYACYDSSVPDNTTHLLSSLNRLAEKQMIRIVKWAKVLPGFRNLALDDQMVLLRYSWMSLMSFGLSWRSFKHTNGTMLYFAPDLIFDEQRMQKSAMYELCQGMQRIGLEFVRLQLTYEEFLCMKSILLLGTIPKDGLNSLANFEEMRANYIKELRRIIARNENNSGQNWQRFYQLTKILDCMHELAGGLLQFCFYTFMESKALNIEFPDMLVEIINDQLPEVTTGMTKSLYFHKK
Description: cell-based. Also noted: species or system HEK293.

In experiment [4] the target is T1, full-length elephant shark GR. Description: luciferase reporter transactivation in HEK293 cells. Format: cell-based. For orientation: Reporter assays use an easily measured gene product as a stand-in for the process of interest.

Molecules are shown by their SMILES.

For `C[C@]12CC[C@H]3[C@@H](CCC4=CC(=O)CC[C@@]43C)[C@@H]1CC[C@@H]2C(=O)CO` [11-deoxycorticosterone], the EC50 in experiment [1] was determined as 11.2 nM; in experiment [2] it was 11 nM.
As for `C[C@]12CCC(=O)C=C1CC[C@@H]1[C@@H]2CC[C@@]2(C)[C@H]1CC[C@]2(O)C(=O)CO` [11-deoxycortisol], the figures for the EC50 in experiment [3] and in experiment [4] were 0.2 nM and 289 nM, respectively.
`C[C@]12CCC(=O)C=C1CC[C@@H]1[C@@H]2[C@@H](O)C[C@]2(C=O)[C@@H](C(=O)CO)CC[C@@H]12` [aldosterone] returned an EC50 in experiment [3] of 0.08 nM. In other words, the picomolar range.
In turn, `C[C@]12C[C@H](O)[C@H]3[C@@H](CCC4=CC(=O)CC[C@@]43C)[C@@H]1CC[C@@H]2C(=O)CO` [corticosterone] had an EC50 in experiment [3] of 1 nM.
`C[C@]12CCC(=O)C=C1CC[C@@H]1[C@@H]2[C@@H](O)C[C@@]2(C)[C@H]1CC[C@]2(O)C(=O)CO` [cortisol] showed an EC50 in experiment [3] of 2.4 nM.

What is called EC50 is the midpoint of the concentration-response curve.

For the origin of these results see publication doi:10.1101/2022.10.08.511437v2 (biorxiv, 2023).
